In US7838498B2, “Benzylic glycoside derivatives and methods of use” (Theracos, Inc., priority 2007, dated 2010):

Legend:
[1] = biological target: T1, human SGLT2 (Homo sapiens, UniProt P31639); assay: Methyl-α-D-[U-14C]glucopyranoside uptake assay, cells stably expressing human SGLT2; format: cell-based; conditions: HEK293.ETN cells expressing human SGLT2, 1.5 h incubation
T1 construct: A full-length cDNA clone expressing human SGLT2 (GenScript Corporation) was subcloned
T1 sequence (P31639 1-672): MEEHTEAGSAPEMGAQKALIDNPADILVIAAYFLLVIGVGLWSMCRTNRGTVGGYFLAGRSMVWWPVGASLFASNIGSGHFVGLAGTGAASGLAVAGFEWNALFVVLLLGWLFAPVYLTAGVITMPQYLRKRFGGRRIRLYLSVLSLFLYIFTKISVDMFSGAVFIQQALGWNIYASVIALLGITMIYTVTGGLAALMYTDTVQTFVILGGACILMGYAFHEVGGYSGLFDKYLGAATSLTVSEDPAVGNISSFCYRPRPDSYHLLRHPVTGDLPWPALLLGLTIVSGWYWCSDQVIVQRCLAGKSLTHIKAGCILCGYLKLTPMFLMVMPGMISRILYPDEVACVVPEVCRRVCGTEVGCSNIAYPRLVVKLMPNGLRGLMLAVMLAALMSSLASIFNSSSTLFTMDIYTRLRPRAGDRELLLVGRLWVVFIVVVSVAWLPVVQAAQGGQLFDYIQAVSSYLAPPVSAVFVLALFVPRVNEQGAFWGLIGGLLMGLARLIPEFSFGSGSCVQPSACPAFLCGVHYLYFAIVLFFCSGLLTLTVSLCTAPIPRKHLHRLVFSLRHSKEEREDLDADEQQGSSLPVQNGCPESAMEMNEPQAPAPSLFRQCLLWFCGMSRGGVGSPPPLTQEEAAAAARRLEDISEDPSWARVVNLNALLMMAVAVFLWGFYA
Description: A full-length cDNA clone expressing human SGLT2 (GenScript Corporation) was subcloned into […] and Not I sites of pEAK15 expression vector. Clones harboring the cDNA inserts were identified by restriction analysis.
Plasmid containing human SGLT2 was linearized with Nsi I and purified by agarose gel electrophoresis. Using Lipofectamine 2000 Transfection Reagent (Invitrogen Corporation), DNA was transfected into HEK293.ETN cells and cultured in Dulbecco's Modified Eagle Medium (DMEM) containing 10% fetal bovine serum (FBS) at 37° C. under 5% CO2 for 24 h. Transfectants were selected in the same growth medium supplemented with puromycin (Invitrogen Corporation) for two weeks. Puromycin-resistant cells were recovered and seeded on a fresh 96-well plate (single cell per well) and cultured in the presence of puromycin until cells became confluent. Puromycin-resistant clones were evaluated for SGLT2 activity in the methyl-α-D-[U-^14C]glucopyranoside uptake assay described below.
(§1) Cells expressing SGLT1 or SGLT2 were seeded on 96-well ScintiPlate scintillating plates (PerkinElmer, Inc.) in DMEM containing 10% FBS (1×10^5 cells per well in 100 μL medium) incubated at 37° C. under 5% CO2 for 48 h prior to the assay. Cells were washed twice with 150 μL of either sodium buffer (137 mM NaCl, 5.4 mM KCl, 2.8 mM CaCl2, 1.2 mM MgCl2, 10 mM tris(hydroxymethyl)aminomethane/N2-hydroxyethylpiperazine-N′-ethanesulfonic acid [Tris/Hepes], pH 7.2) or sodium-free buffer (137 mM N-methyl-glucamine, 5.4 mM KCl, 2.8 mM CaCl2, 1.2 mM MgCl2, 10 mM Tris/Hepes, pH 7.2). Test compound in 50 μL each of sodium or sodium-free buffer containing 40 μCi/L methyl-α-D-[U-^14C]glucopyranoside (Amersham Biosciences/GE Healthcare), either with (symbols in parentheses) or without (symbols without parentheses) 25% human serum, was added per well of a 96-well plate and incubated at 37° C. with shaking for either 2 h (SGLT1 assay) or 1.5 h (SGLT2 assay). Cells were washed twice with 150 μL of wash buffer (137 mM N-methylglucamine, 10 mM Tris/Hepes, pH 7.2) and methyl-α-D-[U-^14C]glucopyranoside uptake was quantitated using a TopCount scintillation counter (PerkinElmer, Inc.). Sodium-dependent glucopyranoside uptake was measured by subtracting the values obtained with sodium-free buffer from those obtained using sodium buffer (average of triplicate determinations).

[2] = biological target: T2, human SGLT1 (Homo sapiens, UniProt P13866); assay: Methyl-α-D-[U-14C]glucopyranoside uptake assay, COS-7 cells expressing human SGLT1; format: cell-based; conditions: COS-7 cells expressing human SGLT1, 2 h incubation
T2 construct: Full-length human SGLT1 cDNA on pDream2.1 expression vector was obtained from GenScript Corporation; host or cells: COS-7 cells (American Type Culture Collection)
T2 sequence (P13866 1-664): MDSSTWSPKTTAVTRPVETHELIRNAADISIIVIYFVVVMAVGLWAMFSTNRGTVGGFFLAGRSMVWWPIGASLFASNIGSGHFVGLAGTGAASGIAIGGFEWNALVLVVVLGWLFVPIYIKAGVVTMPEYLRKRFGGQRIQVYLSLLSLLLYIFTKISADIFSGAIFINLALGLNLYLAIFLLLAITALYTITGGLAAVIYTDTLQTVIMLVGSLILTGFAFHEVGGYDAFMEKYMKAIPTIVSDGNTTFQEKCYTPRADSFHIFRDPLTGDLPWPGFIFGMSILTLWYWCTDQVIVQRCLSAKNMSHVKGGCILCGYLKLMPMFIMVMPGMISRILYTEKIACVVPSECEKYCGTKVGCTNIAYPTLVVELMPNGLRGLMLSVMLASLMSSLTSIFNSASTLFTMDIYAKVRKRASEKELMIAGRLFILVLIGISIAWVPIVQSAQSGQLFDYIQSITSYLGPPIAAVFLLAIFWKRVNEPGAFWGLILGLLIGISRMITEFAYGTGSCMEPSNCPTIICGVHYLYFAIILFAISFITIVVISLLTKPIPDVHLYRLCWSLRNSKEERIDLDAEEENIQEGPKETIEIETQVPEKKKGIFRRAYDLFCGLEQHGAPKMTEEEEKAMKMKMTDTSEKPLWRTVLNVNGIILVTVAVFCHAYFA
Procedure: Full-length human SGLT1 cDNA on pDream2.1 expression vector was obtained from GenScript Corporation and propagated in Escherichia coli strain DH5α using Luria-Bertani (LB) medium containing ampicillin. Plasmid DNA was isolated using the QIAGEN Plasmid Midi Kit (QIAGEN Inc.). […] Transfected cells were stored in DMEM containing 10% dimethyl sulfoxide (DMSO) at −80° C.
as §1

[3] = without human serum (symbols without parentheses)
[4] = with 25% human serum (symbols in parentheses)

| SMILES | IC50 [1, 3] [nM] | IC50 [2, 3] [nM] | IC50 [1, 4] [nM] | IC50 [2, 4] [nM] |
| --- | --- | --- | --- | --- |
| CCc1ccc(Cc2cc([C@@H]3O[C@H](CO)[C@@H](O)[C@H](O)[C@H]3O)c(COCC(O)CO)cc2Cl)cc1 (stereo partly drawn) [Compound L, (2S,3R,4R,5S,6R)-2-(4-chloro-2-((2,3-dihydroxypropoxy)methyl)-5-(4-ethylbenzyl)phenyl)-6-(hydroxymethyl)tetrahydro-2H-pyran-3,4,5-triol] | < 1000 | > 10000 |  |  |
| CCc1ccc(Cc2cc([C@@H]3O[C@H](CO)[C@@H](O)[C@H](O)[C@H]3O)c(COCCF)cc2Cl)cc1 [Compound BZ, (2S,3R,4R,5S,6R)-2-(4-chloro-5-(4-ethylbenzyl)-2-((2-fluoroethoxy)methyl)phenyl)-6-(hydroxymethyl)tetrahydro-2H-pyran-3,4,5-triol] | < 1000 | > 10000 |  |  |
| CC#CCOCc1cc(Cl)c(Cc2ccc(OC)cc2)cc1[C@@H]1O[C@H](CO)[C@@H](O)[C@H](O)[C@H]1O [Compound BA, (2S,3R,4R,5S,6R)-2-(2-((but-2-ynyloxy)methyl)-4-chloro-5-(4-methoxybenzyl)phenyl)-6-(hydroxymethyl)tetrahydro-2H-pyran-3,4,5-triol] |  |  | < 1000 | > 10000 |
| CCc1ccc(Cc2cc([C@@H]3O[C@H](CO)[C@@H](O)[C@H](O)[C@H]3O)c(OCCOC(F)(F)F)cc2Cl)cc1 [Compound BQ, (2S,3R,4R,5S,6R)-2-(4-chloro-5-(4-ethylbenzyl)-2-(2-(trifluoromethoxy)ethoxy)phenyl)-6-(hydroxymethyl)tetrahydro-2H-pyran-3,4,5-triol] |  |  | < 1000 | > 10000 |
| CCOc1ccc(Cc2cc([C@@H]3O[C@H](CO)[C@@H](O)[C@H](O)[C@H]3O)c(CCOCCF)cc2Cl)cc1 [Compound BH, (2S,3R,4R,5S,6R)-2-(4-chloro-5-(4-ethoxybenzyl)-2-(2-(2-fluoroethoxy)ethyl)phenyl)-6-(hydroxymethyl)tetrahydro-2H-pyran-3,4,5-triol] |  |  | < 1000 | 1000 to 10000 |
| CCc1ccc(Cc2cc([C@@H]3O[C@H](CO)[C@@H](O)[C@H](O)[C@H]3O)c(CCOCCF)cc2Cl)cc1 [Compound AH, (2S,3R,4R,5S,6R)-2-(4-chloro-5-(4-ethylbenzyl)-2-(2-(2-fluoroethoxy)ethyl)phenyl)-6-(hydroxymethyl)tetrahydro-2H-pyran-3,4,5-triol] | < 1000 | 1000 to 10000 |  |  |
| CC#CCOCCc1cc(Cl)c(Cc2ccc(CC)cc2)cc1[C@@H]1O[C@H](CO)[C@@H](O)[C@H](O)[C@H]1O [Compound AN, (2S,3R,4R,5S,6R)-2-(2-(2-(but-2-ynyloxy)ethyl)-4-chloro-5-(4-ethylbenzyl)phenyl)-6-(hydroxymethyl)tetrahydro-2H-pyran-3,4,5-triol] | < 1000 | 1000 to 10000 |  |  |
